Measurements reported in patent US20240400564A1 (Syndax Pharmaceuticals, Inc, priority 2021, published 2024).
pIC50: −log10 of the molar value.

Columns and labels:
hERG = hERG (Homo sapiens, UniProt Q12809); test: Patch clamp assay (hERG tail currents, whole-cell)
[1] = molecular target: T1, human Menin and N-terminal portion of human MLL (amino acids 4-43) (Homo sapiens, UniProt O00255); test: Menin-MLL competition assay (HTRF); assay type: binding; details: 1 hr incubation
T1 construct: H-FL-Menin diluted to 4 nM in assay buffer
T1 sequence (O00255 1-610): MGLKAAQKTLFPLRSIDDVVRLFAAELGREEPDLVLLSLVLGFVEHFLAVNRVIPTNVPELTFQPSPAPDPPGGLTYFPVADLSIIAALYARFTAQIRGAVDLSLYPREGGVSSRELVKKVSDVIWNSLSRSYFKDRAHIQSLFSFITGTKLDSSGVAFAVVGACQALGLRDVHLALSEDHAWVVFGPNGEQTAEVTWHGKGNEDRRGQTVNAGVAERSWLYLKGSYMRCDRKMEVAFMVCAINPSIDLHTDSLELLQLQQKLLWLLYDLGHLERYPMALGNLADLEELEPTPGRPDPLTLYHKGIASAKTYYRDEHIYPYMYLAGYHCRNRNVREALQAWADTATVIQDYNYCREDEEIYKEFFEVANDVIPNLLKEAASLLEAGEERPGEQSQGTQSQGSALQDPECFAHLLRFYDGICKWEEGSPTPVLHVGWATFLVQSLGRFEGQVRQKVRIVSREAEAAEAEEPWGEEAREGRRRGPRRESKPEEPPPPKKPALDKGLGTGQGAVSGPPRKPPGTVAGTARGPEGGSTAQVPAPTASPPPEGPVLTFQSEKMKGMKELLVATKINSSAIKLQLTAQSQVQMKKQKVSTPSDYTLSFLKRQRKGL
From the text: Menin-MLL is a competition assay between human Menin and N-terminal portion of human MLL representing amino acids 4-43 of the protein. The interaction between Menin and MLL peptide was monitored by HTRF employing Terbium labeled anti-His6 antibody directed to the N-terminal His6-tag on recombinant Menin and FITC group covalently attached to the MLL peptide. The N-terminal fragment of MLL, retained in all MLL fusion proteins, is involved in the interactions with Menin, and this protein-protein interaction is critical for the MLL fusion proteins mediated leukemogenic transformations.
For IC50 determination test compounds were prepared as 10 mM DMSO stock solutions. Considering DMSO as the vehicle in the assay system. Lower sub-stocks of 50 μM were prepared from the 10 mM stock solution. To test the compounds in assay, 3.16-fold serial dilutions are made in 100% DMSO. Mid-stock of 50×compounds (50 μM) were serially diluted (3.16 fold) in 100% DMSO in Polypropylene plate. In assay plate 1 micro-litre of the previously prepared compound dilution was stamped. H-FL-Menin diluted to 4 nM in assay buffer (50 mM Tris-HCl, pH 7.4, 50 mM NaCl, freshly prepared 1 mM DTT, 0.01% BSA, 0.005% Triton X-100) was pre-incubated with 8 nM anti-His6-Tb for 30 min at room temperature. FITC-MLL-4-43 was diluted to 2 nM in assay buffer and 25 μL was dispensed into each well of the assay plate followed by addition of 25 μl of pre-incubated H-FL-Menin and anti-His6-Tb mixture. Final concentration H-FL-Menin diluted to 1 nM in assay plate with 2 nM anti-His6-Tb and 1 nM FITC-MLL-4-43. After 1 hr incubation at room temperature, the HTRF signal was measured on the Spark multi-label plate reader. Resulting data were captured as a ratio of RFU520/RFU485×1000. The max values were obtained from 0% inhibition in presence of 2% DMSO and the min. values were 100% inhibition in presence of 1 μM reference compound.

Sequence of hERG (Q12809 whole entry, the tested form may be a part): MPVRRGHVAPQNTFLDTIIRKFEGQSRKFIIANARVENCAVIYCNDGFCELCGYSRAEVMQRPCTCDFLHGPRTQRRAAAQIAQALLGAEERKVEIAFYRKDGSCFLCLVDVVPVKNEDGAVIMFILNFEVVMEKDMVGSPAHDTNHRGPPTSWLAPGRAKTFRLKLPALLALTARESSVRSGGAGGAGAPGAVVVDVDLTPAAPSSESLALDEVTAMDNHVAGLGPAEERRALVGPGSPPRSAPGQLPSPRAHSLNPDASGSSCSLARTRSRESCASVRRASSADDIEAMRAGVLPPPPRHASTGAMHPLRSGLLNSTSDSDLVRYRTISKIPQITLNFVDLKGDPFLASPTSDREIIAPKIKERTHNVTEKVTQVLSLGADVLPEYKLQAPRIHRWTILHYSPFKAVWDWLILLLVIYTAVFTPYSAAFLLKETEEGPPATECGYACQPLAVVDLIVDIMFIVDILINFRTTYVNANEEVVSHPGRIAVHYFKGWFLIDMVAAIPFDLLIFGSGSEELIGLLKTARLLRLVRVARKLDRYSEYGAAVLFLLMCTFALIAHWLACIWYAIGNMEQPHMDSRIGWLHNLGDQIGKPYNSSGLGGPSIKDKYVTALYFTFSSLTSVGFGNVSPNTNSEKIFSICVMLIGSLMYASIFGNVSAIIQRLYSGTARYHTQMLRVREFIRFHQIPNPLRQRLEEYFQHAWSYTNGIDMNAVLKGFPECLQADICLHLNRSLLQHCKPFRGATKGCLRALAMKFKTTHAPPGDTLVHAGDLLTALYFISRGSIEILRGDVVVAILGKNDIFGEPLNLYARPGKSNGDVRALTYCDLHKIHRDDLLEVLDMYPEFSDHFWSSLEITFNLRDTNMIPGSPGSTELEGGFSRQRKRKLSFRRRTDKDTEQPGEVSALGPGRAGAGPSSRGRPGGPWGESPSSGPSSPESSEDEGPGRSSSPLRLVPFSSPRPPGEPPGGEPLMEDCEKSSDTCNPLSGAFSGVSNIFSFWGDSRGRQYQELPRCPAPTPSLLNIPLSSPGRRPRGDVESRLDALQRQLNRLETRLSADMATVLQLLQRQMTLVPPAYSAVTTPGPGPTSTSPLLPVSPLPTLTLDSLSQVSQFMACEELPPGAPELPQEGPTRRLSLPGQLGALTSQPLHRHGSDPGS

SMILES: CCN(C(=O)c1cc(F)ccc1Oc1cncnc1N1CC2(CCN(C[C@@H]3CC[C@@H](NS(=O)(=O)C4CCC4)CO3)CC2)C1)C(C)C [Example 6, 2-((4-(7-(((2S,5R)-5-(Cyclobutanesulfonamido)tetrahydro-2H-pyran-2-yl)methyl)-2,7-diazaspiro[3.5]nonan-2-yl)pyrimidin-5-yl)oxy)-N-ethyl-5-fluoro-N-isopropylbenzamide]
- hERG % Remaining (hERG; 10 μM compound): +++ (≥66%)
- hERG % Remaining (hERG; 30 μM compound): ++ (233% and ≤66%)
- pIC50 [1]: > 7.00

SMILES: CC(C)N(C(=O)c1cc(F)ccc1Oc1cncnc1N1CC2(CCN(C[C@@H]3CC[C@@H](NS(C)(=O)=O)CO3)CC2)C1)C(C)C [Example 12, 5-Fluoro-N,N-diisopropyl-2-((4-(7-(((2S,5R)-5-(methylsulfonamido)tetrahydro-2H-pyran-2-yl)methyl)-2,7-diazaspiro[3.5]nonan-2-yl)pyrimidin-5-yl)oxy)benzamide]
- hERG % Remaining (hERG; 1 μM compound): +++ (≥66%)
- hERG % Remaining (hERG; 3 μM compound): +++ (≥66%)
- hERG % Remaining (hERG; 10 μM compound): +++ (≥66%)
- hERG % Remaining (hERG; 30 μM compound): +++ (≥66%)
- hERG % Remaining (hERG; 100 μM compound): ++ (233% and ≤66%)
- pIC50 [1]: > 7.00

SMILES: CCS(=O)(=O)N[C@@H]1CC[C@@H](CN2CCC3(CC2)CN(c2ncncc2Oc2ccc(F)cc2C(=O)N(C(C)C)C(C)C)C3)OC1 [Example 13, 2-((4-(7-(((2S,5R)-5-(Ethylsulfonamido)tetrahydro-2H-pyran-2-yl)methyl)-2,7-diazaspiro[3.5]nonan-2-yl)pyrimidin-5-yl)oxy)-5-fluoro-N,N-diisopropylbenzamide]
- hERG % Remaining (hERG; 1 μM compound): +++ (≥66%)
- hERG % Remaining (hERG; 3 μM compound): +++ (≥66%)
- hERG % Remaining (hERG; 10 μM compound): +++ (≥66%)
- hERG % Remaining (hERG; 30 μM compound): ++ (233% and ≤66%)
- hERG % Remaining (hERG; 100 μM compound): ++ (233% and ≤66%)
- pIC50 [1]: > 7.00

SMILES: CC(C)N(C(=O)c1cc(F)ccc1Oc1cncnc1N1CC2(CCN(C[C@@H]3CC[C@@H](NS(=O)(=O)C(C)C)CO3)CC2)C1)C(C)C [Example 14, 5-Fluoro-N,N-diisopropyl-2-((4-(7-(((2S,5R)-5-((1-methylethyl)sulfonamido)tetrahydro-2H-pyran-2-yl)methyl)-2,7-diazaspiro[3.5]nonan-2-yl)pyrimidin-5-yl)oxy)benzamide]
- hERG % Remaining (hERG; 3 μM compound): +++ (≥66%)
- hERG % Remaining (hERG; 10 μM compound): +++ (≥66%)
- hERG % Remaining (hERG; 30 μM compound): ++ (233% and ≤66%)
- hERG % Remaining (hERG; 100 μM compound): + (<33%)
- pIC50 [1]: > 7.00

SMILES: CC(C)N(C(=O)c1cc(F)ccc1Oc1cncnc1N1CC2(CCN(C[C@@H]3CC[C@@H](NS(=O)(=O)C4CC4)CO3)CC2)C1)C(C)C [Example 15, 2-((4-(7-(((2S,5R)-5-(Cyclopropanesulfonamido)tetrahydro-2H-pyran-2-yl)methyl)-2,7-diazaspiro[3.5]nonan-2-yl)pyrimidin-5-yl)oxy)-5-fluoro-N,N-diisopropylbenzamide]
- hERG % Remaining (hERG; 3 μM compound): +++ (≥66%)
- hERG % Remaining (hERG; 10 μM compound): +++ (≥66%)
- hERG % Remaining (hERG; 30 μM compound): ++ (233% and ≤66%)
- hERG % Remaining (hERG; 100 μM compound): + (<33%)
- pIC50 [1]: > 7.00

SMILES: CC(C)N(C(=O)c1cc(F)ccc1Oc1cncnc1N1CC2(CCN(C[C@@H]3CC[C@@H](NS(=O)(=O)C4COC4)CO3)CC2)C1)C(C)C [Example 16, 5-Fluoro-N,N-diisopropyl-2-((4-(7-(((2S,5R)-5-(oxetane-3-sulfonamido)tetrahydro-2H-pyran-2-yl)methyl)-2,7-diazaspiro[3.5]nonan-2-yl)pyrimidin-5-yl)oxy)benzamide]
- hERG % Remaining (hERG; 10 μM compound): +++ (≥66%)
- hERG % Remaining (hERG; 30 μM compound): +++ (≥66%)
- pIC50 [1]: > 7.00

SMILES: CCS(=O)(=O)N[C@@H]1CC[C@@H](CN2CCC3(CC2)CN(c2ncncc2Oc2ccc(F)cc2C(=O)N(C(C)C)C2CC2)C3)OC1 [Example 19, N-Cyclopropyl-2-((4-(7-(((2S,5R)-5-(ethylsulfonamido)tetrahydro-2H-pyran-2-yl)methyl)-2,7-diazaspiro[3.5]nonan-2-yl)pyrimidin-5-yl)oxy)-5-fluoro-N-isopropylbenzamide]
- hERG % Remaining (hERG; 10 μM compound): +++ (≥66%)
- hERG % Remaining (hERG; 30 μM compound): ++ (233% and ≤66%)
- pIC50 [1]: > 7.00

SMILES: CC(C)N(C(=O)c1cc(F)ccc1Oc1cncnc1N1CC2(CCN(C[C@@H]3CC[C@@H](NS(=O)(=O)C4CC4)CO3)CC2)C1)C1CC1 [Example 21, 2-((4-(7-(((2S,5R)-5-(Cyclopropanesulfonamido)tetrahydro-2H-pyran-2-yl)methyl)-2,7-diazaspiro[3.5]nonan-2-yl)pyrimidin-5-yl)oxy)-N-cyclopropyl-5-fluoro-N-isopropylbenzamide]
- hERG % Remaining (hERG; 10 μM compound): ++ (233% and ≤66%)
- hERG % Remaining (hERG; 30 μM compound): + (<33%)
- pIC50 [1]: > 7.00

SMILES: CCS(=O)(=O)N[C@@H]1CC[C@@H](CN2CCC3(CC2)CN(c2ncncc2Oc2ccc(F)cc2C(=O)N(C(C)C)[C@H]2CCOC2)C3)OC1 [Example 33, 2-((4-(7-(((2S,5R)-5-(Ethylsulfonamido)tetrahydro-2H-pyran-2-yl)methyl)-2,7-diazaspiro[3.5]nonan-2-yl)pyrimidin-5-yl)oxy)-5-fluoro-N-isopropyl-N-((S)-tetrahydrofuran-3-yl)benzamide]
- hERG % Remaining (hERG; 10 μM compound): +++ (≥66%)
- hERG % Remaining (hERG; 30 μM compound): +++ (≥66%)
- pIC50 [1]: > 7.00

SMILES: CCS(=O)(=O)N[C@@H]1CC[C@@H](CN2CCC3(CC2)CN(c2ncncc2Oc2ccc(F)cc2C(=O)N(CC(F)F)C(C)C)C3)OC1 [Example 34, N-(2,2-Difluoroethyl)-2-((4-(7-(((2S,5R)-5-(ethylsulfonamido)tetrahydro-2H-pyran-2-yl)methyl)-2,7-diazaspiro[3.5]nonan-2-yl)pyrimidin-5-yl)oxy)-5-fluoro-N-isopropylbenzamide]
- hERG % Remaining (hERG; 1 μM compound): +++ (≥66%)
- hERG % Remaining (hERG; 3 μM compound): +++ (≥66%)
- hERG % Remaining (hERG; 10 μM compound): +++ (≥66%)
- hERG % Remaining (hERG; 30 μM compound): ++ (233% and ≤66%)
- hERG % Remaining (hERG; 100 μM compound): + (<33%)
- pIC50 [1]: > 7.00

SMILES: CCS(=O)(=O)N[C@@H]1CC[C@@H](CN2CCC3(CC2)CN(c2ncncc2Oc2ccc(F)cc2C(=O)N(CCC#N)C(C)C)C3)OC1 [Example 43, N-(2-Cyanoethyl)-2-((4-(7-(((2S,5R)-5-(ethylsulfonamido)tetrahydro-2H-pyran-2-yl)methyl)-2,7-diazaspiro[3.5]nonan-2-yl)pyrimidin-5-yl)oxy)-5-fluoro-N-isopropylbenzamide]
- hERG % Remaining (hERG; 10 μM compound): +++ (≥66%)
- hERG % Remaining (hERG; 30 μM compound): ++ (233% and ≤66%)
- pIC50 [1]: > 7.00

SMILES: CCS(=O)(=O)N[C@@H]1CC[C@@H](CN2CCC3(CC2)CN(c2ncncc2Oc2ccc(F)cc2C(=O)N(C(C)C)C2CC(F)(F)C2)C3)OC1 [Example 44, N-(3,3-Difluorocyclobutyl)-2-((4-(7-(((2S,5R)-5-(ethylsulfonamido)tetrahydro-2H-pyran-2-yl)methyl)-2,7-diazaspiro[3.5]nonan-2-yl)pyrimidin-5-yl)oxy)-5-fluoro-N-isopropylbenzamide]
- hERG % Remaining (hERG; 10 μM compound): +++ (≥66%)
- hERG % Remaining (hERG; 30 μM compound): ++ (233% and ≤66%)
- pIC50 [1]: > 7.00

SMILES: CCN(C(=O)c1cc(F)ccc1Oc1cncnc1N1CC2(CCN(C[C@@H]3CC[C@@H](NS(=O)(=O)c4ccccc4)CO3)CC2)C1)C(C)C [Example 45, N-Ethyl-5-fluoro-N-isopropyl-2-((4-(7-(((2S,5R)-5-(phenylsulfonamido)tetrahydro-2H-pyran-2-yl)methyl)-2,7-diazaspiro[3.5]nonan-2-yl)pyrimidin-5-yl)oxy)benzamide]
- hERG % Remaining (hERG; 10 μM compound): ++ (233% and ≤66%)
- hERG % Remaining (hERG; 30 μM compound): + (<33%)
- pIC50 [1]: > 7.00

SMILES: CC(C)N(CC(F)F)C(=O)c1cc(F)ccc1Oc1cncnc1N1CC2(CCN(C[C@@H]3CC[C@@H](NS(=O)(=O)C4CC4)CO3)CC2)C1 [Example 47, 2-((4-(7-(((2S,5R)-5-(Cyclopropanesulfonamido)tetrahydro-2H-pyran-2-yl)methyl)-2,7-diazaspiro[3.5]nonan-2-yl)pyrimidin-5-yl)oxy)-N-(2,2-difluoroethyl)-5-fluoro-N-isopropylbenzamide]
- hERG % Remaining (hERG; 10 μM compound): +++ (≥66%)
- hERG % Remaining (hERG; 30 μM compound): ++ (233% and ≤66%)
- pIC50 [1]: > 7.00
